A short description of this data set: Solubility of IPBC in Rhodiasolv DIB and PEG 300 (HPLC of supernatant). Type of data set: physicochemical. As to conditions: room temperature, after-stirred 12 h, supernatant by HPLC. The procedure: Solubility of IPBC in Rhodiasolv DIB and PEG 300
The solvent was introduced as initial charge at room temperature, and IPBC was added until a sediment persisted. It was after-stirred for a further 12 h, the solid was centrifuged off and the remaining supernatant was analyzed by means of HPLC.

Molecules are shown by their SMILES.

In the case of `CCCCNC(=O)OCC#CI` [IPBC, 3-iodopropargyl butylcarbamate], the “solubility of IPBC in Rhodiasolv DIB” value came out at 36.1 % by weight and the “solubility of IPBC in polyethylene glycol 300” value is 44.9 % by weight.

Values taken from US8231721B2, “Antifungal liquid formulations” (LANXESS Deutschland GmbH, priority 2008, dated 2012).
